Data: the supplement of paper PMC10883282

Tests used:
Test in all cases: relative viability vs DMSO control (72 h) (fraction); higher = more viable cells
MES-SA = system: MES-SA
Procedure, shortened: (§1)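 Sarcoma cell lines were seeded in 384-well plates at densities chosen for 80–90% confluence, then 24 h later given 2.5 µl of serially diluted compound drawn from source plates spanning 10 mM to 0.0002 mM. They were held 72 h at 37 °C, 5% CO2, with 0.1% DMSO vehicle and a 5 µM positive control included. Relative viability was read with ATPLite as percent growth and averaged over up to triplicate wells. Rescaling placed full at 1 and none at 0.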

VA-ES-BJ = system: VA-ES-BJ
Procedure, shortened: as §1

A204 = system: A204
Procedure, shortened: as §1

SW982 = system: SW982
Procedure, shortened: as §1

SK-ES-1 = system: SK-ES-1
Procedure, shortened: as §1

CCCS(=O)(=O)N[C@H]1C[C@@H](N(C)c2ncnc3[nH]ccc23)C1 [Abrocitinib]
relative viability
Details	A204	MES-SA	SK-ES-1	SW982	VA-ES-BJ
0.00017 µM	1.07	0.929	1.03	1.03	1.02
0.00051 µM	1.06	0.904	1.06	1.04	1.02
0.00152 µM	1.07	0.9	1.04	1.04	1
0.00457 µM	1.06	0.9254	1.03	1.04	1.03
0.01372 µM	1.07	0.917	1.03	1.02	1.02
0.04115 µM	1.07	0.932	1.02	1.06	1.05
0.1235 µM	1.07	0.922	1.03	1.07	1.03
0.3704 µM	1.07	0.942	1.03	1.044	1.05
1.111 µM	1.03	0.912	1.02	1.04	1.06
3.333 µM	1.01	0.933	1.03	1.056	1.03
10 µM	0.949	0.893	1	1.06	1.01

COc1cc2c(Oc3ccc4[nH]c(C)cc4c3F)ccnc2cc1OCC1(N)CC1 [Anlotinib]
relative viability
Details	A204	MES-SA	SK-ES-1	SW982	VA-ES-BJ
0.00017 µM	1.08	0.921	1.05	1.034	0.975
0.00051 µM	1.08	0.9145	1.053	1.04	0.993
0.00152 µM	1.05	0.918	1.04	1.01	0.987
0.00457 µM	1.05	0.9154	1.03	1.05	0.979
0.01372 µM	1.05	0.947	1.07	1.06	0.977
0.04115 µM	0.997	0.949	1.09	1.06	0.978
0.1235 µM	0.829	0.924	1.09	1.05	0.997
0.3704 µM	0.475	0.951	1.07	0.997	1.022
1.111 µM	0.36	0.841	0.958	0.956	0.983
3.333 µM	0.18	0.271	0.104	0.544	0.62
10 µM	0.0656	0.115	0.0396	0.206	0.505

CCN(CCCOc1ccc2c(Nc3cc(CC(=O)Nc4cccc(F)c4)[nH]n3)ncnc2c1)CCOP(=O)(O)O [Barasertib]
relative viability
Details	A204	MES-SA	SK-ES-1	SW982	VA-ES-BJ
0.00017 µM	1.05	0.92	1.05	1.06	1.01
0.00051 µM	1.05	0.915	1.09	1.03	1.01
0.00152 µM	1.05	0.911	1.04	1.05	0.986
0.00457 µM	1.04	0.892	0.98	1.05	0.998
0.01372 µM	0.9872	0.692	0.237	1	0.84
0.04115 µM	0.907	0.448	0.065	0.713	0.634
0.1235 µM	0.859	0.448	0.0636	0.5551	0.619
0.3704 µM	0.813	0.447	0.0641	0.552	0.647
1.111 µM	0.7	0.436	0.061	0.589	0.689
3.333 µM	0.441	0.444	0.0649	0.525	0.68
10 µM	0.379	0.398	0.0658	0.468	0.727

COc1cc(Nc2c(C#N)cnc3cc(OCCCN4CCN(C)CC4)c(OC)cc23)c(Cl)cc1Cl [Bosutinib]
relative viability
Details	A204	MES-SA	SK-ES-1	SW982	VA-ES-BJ
0.00017 µM	1.09	1.018	1.05	1.05	1.11
0.00051 µM	1.12	0.992	1.06	1.08	1.14
0.00152 µM	1.09	1.01	1.06	1.08	1.12
0.00457 µM	1.13	0.979	1.07	1.08	1.12
0.01372 µM	1.17	0.989	1	1.09	1.14
0.04115 µM	1.21	0.993	1.02	1.08	1.16
0.1235 µM	1.23	0.994	0.935	1.05	1.14
0.3704 µM	1.21	0.926	0.732	0.816	1.03
1.111 µM	1.111	0.675	0.482	0.511	0.729
3.333 µM	0.807	0.432	0.303	0.359	0.545
10 µM	0.259	0.228	0.136	0.0126	0.0514

COc1cc2nccc(Oc3ccc(NC(=O)C4(C(=O)Nc5ccc(F)cc5)CC4)cc3)c2cc1OC [Cabozantinib]
relative viability
Details	A204	MES-SA	SK-ES-1	SW982	VA-ES-BJ
0.00017 µM	1.04	0.994	1.01	1.04	1.07
0.00051 µM	1.1	0.953	1.05	1.01	1.06
0.00152 µM	1.06	0.947	1.03	1.03	1.04
0.00457 µM	1.06	0.948	0.986	1.035	1
0.01372 µM	0.9735	0.934	1.04	1.036	1.04
0.04115 µM	0.785	0.929	0.992	1.07	1.03
0.1235 µM	0.428	0.912	1	1.05	0.9802
0.3704 µM	0.378	0.89	0.941	1.03	0.971
1.111 µM	0.341	0.807	0.885	0.993	0.91
3.333 µM	0.312	0.262	0.514	0.598	0.68
10 µM	0.229	0.163	0.128	0.259	0.266

Cc1cc(Nc2ncc(Cl)c(Nc3ccccc3S(=O)(=O)C(C)C)n2)c(OC(C)C)cc1C1CCNCC1 [Ceritinib]
relative viability
Details	A204	MES-SA	SK-ES-1	SW982	VA-ES-BJ
0.00017 µM	1.05	0.953	0.967	0.974	1.05
0.00051 µM	1.07	0.92	0.984	0.943	1.04
0.00152 µM	1.08	0.95	1	0.946	1.04
0.00457 µM	1.07	0.951	0.974	0.92	1.05
0.01372 µM	1.07	0.963	0.961	0.959	1.06
0.04115 µM	1.06	0.969	0.995	0.9674	1.03
0.1235 µM	1.06	0.96	0.914	0.902	1.02
0.3704 µM	1.04	0.98	0.6537	0.765	0.975
1.111 µM	0.928	0.94	0.339	0.64	0.954
3.333 µM	0.334	0.676	0.102	0.311	0.929
10 µM	0.0012	-0.00177	0.000733	0.00217	-0.008

C[C@@H](Oc1cc(-c2cnn(C3CCNCC3)c2)cnc1N)c1c(Cl)ccc(F)c1Cl [Crizotinib]
relative viability
Details	A204	MES-SA	SK-ES-1	SW982	VA-ES-BJ
0.00017 µM	1.07	0.943	1.03	1.04	1.06
0.00051 µM	1.05	0.935	1.01	1.03	1.05
0.00152 µM	1.08	0.943	1.05	1.03	1.06
0.00457 µM	1.08	0.944	1.052	1.05	1.06
0.01372 µM	1.1	0.946	1.06	1.03	1.04
0.04115 µM	1.09	0.969	1.03	1.03	0.975
0.1235 µM	1.08	0.938	0.979	0.954	0.899
0.3704 µM	0.963	0.536	0.673	0.628	0.764
1.111 µM	0.823	0.434	0.0655	0.328	0.641
3.333 µM	0.577	0.27	0.0452	0.168	0.505
10 µM	0.0123	-0.000833	0.00363	0.00317	0.00337

COc1cc2ncnc(Nc3ccc(F)c(Cl)c3)c2cc1NC(=O)/C=C/CN1CCCCC1 [Dacomitinib]
relative viability
Details	A204	MES-SA	SK-ES-1	SW982	VA-ES-BJ
0.00017 µM	1.1	0.967	1.04	1.05	1.064
0.00051 µM	1.09	0.942	1.1	1.07	1.08
0.00152 µM	1.09	0.949	1.04	1.08	1.09
0.00457 µM	1.08	0.932	1.07	1.09	1.09
0.01372 µM	1.04	0.926	1.07	1.08	1.03
0.04115 µM	1.07	0.927	1.04	1.08	0.979
0.1235 µM	1.06	0.893	1.02	1.04	1.02
0.3704 µM	0.978	0.879	1.01	0.986	0.994
1.111 µM	0.751	0.731	0.662	0.606	0.914
3.333 µM	0.327	0.342	0.184	0.21	0.535
10 µM	0.0139	0.00577	0.00867	0.0159	-0.0076

Cc1nc(Nc2ncc(C(=O)Nc3c(C)cccc3Cl)s2)cc(N2CCN(CCO)CC2)n1 [Dasatinib]
relative viability
Details	A204	MES-SA	SK-ES-1	SW982	VA-ES-BJ
0.00017 µM	1.08	0.935	1.04	1.05	1.04
0.00051 µM	1.04	0.919	1.03	1.04	1.04
0.00152 µM	1.06	0.903	1.038	1.04	1.04
0.00457 µM	1.02	0.91	1.05	0.99	0.996
0.01372 µM	0.83	0.879	1.02	0.854	0.856
0.04115 µM	0.501	0.825	0.975	0.641	0.688
0.1235 µM	0.376	0.799	0.993	0.389	0.502
0.3704 µM	0.356	0.791	0.934	0.277	0.447
1.111 µM	0.356	0.8428	0.896	0.259	0.413
3.333 µM	0.314	0.728	0.673	0.258	0.335
10 µM	0.281	0.258	0.402	0.218	0.246

COc1cc(OC)cc(N(CCNC(C)C)c2ccc3ncc(-c4cnn(C)c4)nc3c2)c1 [Erdafitinib]
relative viability
Details	A204	MES-SA	SK-ES-1	SW982	VA-ES-BJ
0.00017 µM	1.04	0.911	1.02	1.01	1.08
0.00051 µM	1.03	0.9276	1.03	0.997	1.05
0.00152 µM	0.971	0.909	1.04	0.954	1.06
0.00457 µM	0.934	0.85	1	0.992	1.02
0.01372 µM	0.746	0.837	0.957	0.984	1.04
0.04115 µM	0.595	0.741	0.876	0.958	1.03
0.1235 µM	0.422	0.679	0.872	0.953	1.06
0.3704 µM	0.322	0.667	0.818	0.888	1.04
1.111 µM	0.194	0.616	0.702	0.544	0.92
3.333 µM	0.127	0.409	0.33	0.225	0.612
10 µM	0.0417	0.148	0.181	0.0452	0.355
